Assay results taken from the CheMixHub drug solubility set.

Experiment: xn = mol fraction of the nth substance listed, in the solute-free solvent

CC(C)C(=O)Nc1ccc([N+](=O)[O-])c(C(F)(F)F)c1 + CCOC(C)=O + CC(C)O
solubility (g/100 g solution)
Conditions | 278.15 K | 283.15 K | 288.15 K | 293.15 K | 298.15 K | 303.15 K | 308.15 K | 313.15 K | 318.15 K | 323.15 K
x2 = 0.1 | 19.4 | 22.7 | 26.3 | 30.2 | 33.9 | 38.7 | 43.5 | 48.3 | 53 | 57.4
x2 = 0.2 | 28.6 | 30.8 | 33.4 | 36.8 | 40.7 | 44.4 | 48.2 | 51.8 | 55.6 | 59.2
x2 = 0.3 | 30.6 | 34.2 | 38 | 41.5 | 44.9 | 48.2 | 51.3 | 54.9 | 58.2 | 61.5
x2 = 0.4 | 32.7 | 36.3 | 39.5 | 42.8 | 45.9 | 49 | 52.5 | 55.8 | 58.7 | 61.9
x2 = 0.5 | 33.7 | 37.2 | 40.7 | 44 | 46.9 | 49.8 | 52.9 | 56.1 | 59.3 | 62.1
x2 = 0.6 | 34.3 | 38 | 41.5 | 44.7 | 47.6 | 50.4 | 53.3 | 56.4 | 59.4 | 62.5
x2 = 0.7 | 34.5 | 37.8 | 41 | 44.3 | 47.4 | 50.3 | 53.4 | 56.4 | 59.4 | 62.4
x2 = 0.8 | 34.2 | 37.7 | 41.3 | 44.7 | 47.8 | 50.9 | 53.6 | 56.7 | 59.8 | 62.9
x2 = 0.9 | 34.4 | 37.9 | 41.5 | 44.8 | 47.8 | 51.1 | 53.9 | 56.6 | 59.5 | 62.6

CC1=NNC(=O)N(N=Cc2cccnc2)C1 + CN1CCCC1=O + CC(C)O
solubility (g/100 g solution)
Conditions | 278.15 K | 283.15 K | 288.15 K | 293.15 K | 298.15 K | 303.15 K | 308.15 K | 313.15 K | 318.15 K
x2 = 0.1316 | 0.161 | 0.188 | 0.221 | 0.258 | 0.3 | 0.347 | 0.402 | 0.461 | 0.529
x2 = 0.2878 | 0.235 | 0.273 | 0.319 | 0.37 | 0.429 | 0.494 | 0.57 | 0.652 | 0.746
x2 = 0.4763 | 0.292 | 0.339 | 0.395 | 0.457 | 0.529 | 0.608 | 0.701 | 0.801 | 0.914
x2 = 0.708 | 0.333 | 0.386 | 0.449 | 0.519 | 0.601 | 0.689 | 0.794 | 0.906 | 1.03

Cc1ccc(-c2cc(C(F)(F)F)nn2-c2ccc(S(N)(=O)=O)cc2)cc1 + CN1CCCC1=O + CCCO
solubility (g/100 g solution)
Conditions | x2 = 0.06311 | x2 = 0.1316 | x2 = 0.2062 | x2 = 0.2878 | x2 = 0.3774 | x2 = 0.4763 | x2 = 0.5858 | x2 = 0.708 | x2 = 0.8451
293.15 K | 5.07 | 5.58 | 6.56 | 6.91 | 7.25 | 9.83 | 11.2 | 13.6 | 16.9
298.15 K | 5.96 | 6.26 | 6.96 | 7.72 | 8.23 | 10.3 | 12.2 | 14.6 | 18
303.15 K | 6.68 | 7.1 | 7.85 | 8.74 | 9.16 | 11.9 | 13.4 | 16.3 | 19.6
308.15 K | 7.49 | 8.17 | 9.06 | 9.84 | 10 | 12.7 | 14.5 | 17.3 | 21.1
313.15 K | 8.6 | 9.28 | 9.59 | 10.3 | 10.6 | 13.5 | 15.8 | 19 | 22.6
